In patent publication US20070213291A1, “Therapeutically useful synthetic oligonucleotides” (priority 1999, published 2007):

Assays:
[1] = test system: Jurkat human leukemia T cells; assay: Inhibition of Jurkat human leukemia T cell proliferation (MTT reduction); assay type: cell-based; conditions: for % INHIBITION of Jurkat human leukemia T cell proliferation: 100 μg/ml sequence, 48 h, 2.5×10^5 cells/ml; for proliferation, cell cycle arrest and apoptosis of Jurkat T cells (summary in words): M. phlei murA derived sequences
Method in brief: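 Read-out is MTT absorbance at 570 nm after 48 h. Sequences of 2 to 45 bases (A, C, G, T) tested at 100 μg/ml against untreated control, with 2.5×10^5 Jurkat cells/ml held at 37° C under 5% CO2.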

[2] = test system: Jurkat human leukemia T cells; assay: Cell cycle stage in Jurkat cells (propidium iodide flow cytometry); assay type: cell-based; conditions: Jurkat, M. phlei murA derived sequences
Method in brief: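 Phase distribution (G0/G1, early, mid and late S, G2/M) came from flow cytometry with doublet discrimination on propidium iodide-stained nuclei. Jurkat cells were given 24 h exposure to 2–45-base oligonucleotides, or at 1×10^6 cells/ml to single 6-base GT or AC strands heated 10 min at 65 °C or 1:1 hybridized duplex.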

caspase 3 [3] = assay: Active caspase 3 by FITC-conjugated antibody flow cytometry; assay type: cell-based, human; conditions: Jurkat, 72 h, 100 μg/ml, cytometric (FIG. 2A)
Protocol: (§1) To determine caspase activation, control and treated cells are washed, fixed, permeabilized and incubated with an FITC-conjugated antibody that recognizes the active form of the caspase (Pharmingen, San Diego, Calif.) using the conditions recommended by the manufacturer. Fluorescence associated with active caspase 3 is analyzed by flow cytometry on a FACSCALIBUR using the program CellQUEST (Becton Dickinson). Alternatively, caspase activation is determined colorimetrically using an assay based on the cleavage of a caspase-specific peptide conjugated to the color reporter molecule p-nitroanilide, which can be quantitated spectrophotometrically at a wavelength of 405 nm.
(§2) Jurkat T cell leukemia cells were incubated for 72 h with 33 base GT SEQ ID NO:66; 11 base GT SEQ ID NO:81 (bases 1-11 of GT SEQ ID NO:66), 11 base GT SEQ ID NO:82 (bases 12-22 of GT SEQ ID NO:66), 11 base GT SEQ ID NO:83 (bases 23-33 of GT SEQ ID NO:66) and 15 base ACG SEQ ID NO:67. Active caspase 3 (17-22 kDa) was determined using FITC conjugated antibody (Clone: C92-605) as in Example 28.

caspase 3 [4] = assay: Caspase 3 activation, colorimetric (p-nitroanilide peptide cleavage); assay type: cell-based, human; conditions: Jurkat, 72 h, 100 μg/ml
Protocol: as §1, §2
Caspase 3 activation also was determined colorimetrically as in Example 28.
Jurkat T cell leukemia cells were incubated for 72 h with 6 base GT SEQ ID NO:25. Caspase 3 activation was determined colorimetrically as in Example 28.

[5] = test system: Jurkat human leukemia T cells; assay: Apoptosis by phosphatidylserine/annexin V-FITC flow cytometry; assay type: cell-based; conditions: M. phlei murA derived sequences
Protocol: The redistribution of phosphatidylserine in the plasma membrane during apoptosis was measured by flow cytometry using FITC-conjugated annexin V (BD Pharmingen, San Diego, Calif.). NuMA release into the supernatant was determined using a commercial ELISA kit (Oncogen/Calbiochem, Cambridge, Mass.).
Jurkat human leukemia T cells were incubated with 50 μM of 3, 4, 5, 6 and 7 GT base sequences, a 5 base ACGT sequence, 6 base AG, GG, AGT and CGT sequences and a 7 base GG sequence. […]
Jurkat human leukemia T cells were incubated with GT-rich or AC-rich sequences derived from the murA gene of Mycobacterium phlei (GenBank: Accession Number X99776). Inhibition of proliferation was measured by the reduction of MTT as in Example 3, cell cycle arrest was detected by flow cytometry using propidium iodide as in Example 21 and apoptosis was evaluated by flow cytometry using annexin-V-FITC as in Example 23.

[6] = test system: D-17 canine osteosarcoma cells; assay: Inhibition of D-17 cell proliferation (MTT); assay type: cell-based; conditions: 100 μg/ml, 48 h, 5×10^5 cells/ml
Protocol: (§3) Cells were seeded in 6 (1 ml/well), 24 (0.5 ml/well) or 96 (0.1 ml/well) well flat-bottom microplates and were maintained at 37° C. in a 5% CO2 atmosphere. Unless stated otherwise, 2.5×10^5 cells/ml were incubated with 0 μg/ml (control) and 100 μg/ml (treated) of 2 to 45 base sequences containing A, C, G and T for 48 h.
(§4) Cell proliferation was measured using dimethylthiazol-diphenyl-tetrazolium (MTT) reduction (Mosman et al. J. Immunol. Methods 65:55, 1983). MTT was measured at a wavelength of 570 nm using a multiplate spectrophotometer reader (ELX800, Bio-TEK Instruments Inc., Winooski, Vt.).
(§5) D-17 canine osteosarcoma cells and CF-51 canine mammary gland cancer cells are solid tumor models. D-17 canine osteosarcoma cells (5×10^5 cells/ml) (Table 20) and CF-51 canine mammary gland cancer cells (5×10^5 cells/ml) (Table 21) were incubated with 6, 9, 17, 27 and 33 base GT-sequences and with a 15 base ACG sequence.

[7] = test system: CF-51 canine mammary gland cancer cells; assay: Inhibition of CF-51 cell proliferation (MTT); assay type: cell-based; conditions: 100 μg/ml, 48 h, 5×10^5 cells/ml
Protocol: as §3, §4, §5

[8] = test system: EL-4 murine T lymphoma cells; assay: Inhibition of EL-4 cell proliferation (MTT); assay type: cell-based; conditions: 100 μg/ml, 48 h
Protocol: as §3, §4
EL-4 murine lymphoma T cells are a suspension tumor model. EL-4 murine lymphoma T cells were incubated with 6, 18, 27 and 33 base GT sequences and with a 15 base ACG sequence (Table 18).

Q: “GGTTTTGTTTG (unmodified DNA) [SEQ ID NO:82]” was tested. Which “% INHIBITION of Jurkat human leukemia T cell proliferation” value [1] did it give?
A: 20%

Q: And the “proliferation, cell cycle arrest and apoptosis of Jurkat T cells (summary in words)” value [1]?
A: inhibited proliferation of, induced cell cycle arrest in and induced apoptosis of Jurkat T cells

Q: And the cell cycle arrest [2]?
A: End SE

Q: What about the “processing of inactive pro-caspase 3 to active caspase 3” value (from here on “processing”) (caspase 3 [3]) of the same sequence?
A: induced processing of inactive pro-caspase 3 to active caspase 3

Q: And the “caspase 3 activity greater than in control cells” value (shortened to “caspase 3 activity greater than”) (caspase 3 [4])?
A: 100%

Q: What about the “% at cells in apoptosis” value [5] of the same sequence?
A: 25%

Q: How did the “% INHIBITION of Jurkat human leukemia T cell proliferation” value [1] turn out when “GTGTGTTTGGT (unmodified DNA) [SEQ ID NO:81]” was run?
A: 22%

Q: And the “proliferation, cell cycle arrest and apoptosis of Jurkat T cells (summary in words)” value [1]?
A: inhibited proliferation of, induced cell cycle arrest in and induced apoptosis of Jurkat T cells

Q: What about the “processing” value (caspase 3 [3]) of the same sequence?
A: induced processing of inactive pro-caspase 3 to active caspase 3

Q: And the “caspase 3 activity greater than” value (caspase 3 [4])?
A: 77%

Q: And the “% at cells in apoptosis” value [5]?
A: 23%

Q: How did the “% INHIBITION of D-17 canine osteosarcoma cell proliferation” value [6] turn out when “GTGTGTTTGGTGGTTTTGTTTGTTGTTTTTTTG (DNA, backbone not given here) [SEQ ID NO:66]” was run?
A: 23%

Q: What about the “% INHIBITION of CF-51 canine mammary gland cancer cell proliferation” value [7] of the same sequence?
A: 23%

Q: And the “% INHIBITION of EL-4 murine T lymphoma cell proliferation” value [8]?
A: −1%

Q: What about the “processing” value (caspase 3 [3]) of the same sequence?
A: induced processing of inactive pro-caspase 3 to active caspase 3

Q: And the “caspase 3 activity greater than” value (caspase 3 [4])?
A: 105%
